{"source": "patent US10583115B2", "about": "“Modulators of 14-3-3 functionality and uses thereof” (University of South Australia, priority 2014, dated 2020)", "key": {"A549 cells [1]": {"system": "A549 cells", "assay": "A549 cell viability by MTS assay", "format": "cell-based, human", "conditions": "48 hrs treatment", "protocol": "A549 cells (2500/well) were plated in 96 well trays in DMEM with 0.5% FBS and cultured at 37° C. with 5% CO2 overnight. The following day RB compounds were added and cells incubated for a further 48 hours prior to removal of the medium and replacement with MTS reagent diluted 1:6 in Dulbecco's PBS. The cells were incubated at 37° C. for a further 4 hours and the conversion of MTS to the coloured formazan compound determined by measurement of absorbance at 490 nm."}, "A549 xenograft": {"system": "A549 xenograft", "assay": "A549 xenograft study", "format": "in vivo, BALB/c nude mice", "protocol": "All experimental procedures involving animals were conducted in accordance with the NHMRC Australian Code for the Care and Use of Animals for Scientific Purposes and with approval by the institutional animal ethics committee. BALB/c nude mice (Nu/Nu, female, 5-6 weeks old) were purchased from the Animal Resources Centre (Perth, Wash.) and maintained under pathogen-free conditions. A549 cells (5×106) in 100 μl PBS were injected subcutaneously into the flanks of the mice and the resulting tumour were measured using digital callipers. The tumour volume was calculated using the following formula: Volume=(larger diameter)×(small diameter)2/2. Once the tumours had reached 100 mm3, mice were divided into groups of 9 and each group administered either RB-012 in saline, FTY720 in saline or saline alone by intraperitoneal injection daily. Initially RB-12 and FTY720 were administered at 2 mg/kg for two days and then the dose was increased to 5 mg/kg for two weeks after which RB-012 was increased to 10 mg/kg but FTY720 maintained at 5 mg/kg. During this dosing regime tumours were monitored twice a week. Differences between samples were analysed using 2 way Anova and statistical significance was accepted at P<0.05.\nTo assess the effect of RB-012 on human lung cancer growth in vivo, A549 cells were implanted subcutaneously on the flanks of Balb/C nude mice and tumours allowed to develop until they had reached a volume of 100 mm^3. RB-012 or saline was then administered daily to assess the effect on tumour growth. Initially, to reduce the cramping and encourage tolerance, 2 mg/kg RB-012 was administered for two days and then the dose was increased to 5 mg/kg daily for two weeks. Tumour volume was monitored twice a week and after two weeks of treatment mice administered RB-012 had tumours that were 20% smaller than mice receiving saline. […] The tumours on the RB-012 treated mice continued to grow more slowly and after the third week were 30% smaller than those of saline-treated mice (P<0.05). […] Therefore we were unable to increase FTY720 dosing to match RB-012."}, "Jurkat cells [2]": {"system": "Jurkat cells", "assay": "Jurkat apoptosis assays (TMRE, caspase 3, Annexin V, viability by flow cytometry)", "format": "cell-based", "protocol": "(§1) Jurkat cells were routinely set up in apoptosis assays at 2×10^5/ml in RPMI with 0.5% FBS. After treatment, cells were stained either with 200 nM TMRE, 5 μl/ml NucView™ (Biotium), or Annexin V-FITC (Roche) for 15 mins prior to analysis by flow cytometry. Forward- and side-scatter properties were used to exclude debris and a ‘viable’ gate corresponding to the intact, PI negative cell population was used for fluorescence analysis. For A549, cells at 90% confluency were treated with RB compounds for 48 hrs in DMEM with 0.5% FBS. After treatment, cells were released with trypsin and then stained with NucView™ prior to analysis by flow cytometry."}, "A549 cells [3]": {"system": "A549 cells", "assay": "A549 colony assay in soft agar", "format": "cell-based, human", "conditions": "14 days", "protocol": "A549 cells (7500) were plated in 0.33% low-melting point agarose in DMEM with 10% FBS with and without RB compounds over a 0.5% low-melting point agarose base. Cells were incubated at 37° C. with 5% CO2 for 14 days and then colonies were photographed and analysed using Image J."}, "A549 cells [4]": {"system": "A549 cells", "assay": "A549 caspase-3 activation (NucView, flow cytometry)", "format": "cell-based, human", "conditions": "48 hrs treatment", "protocol": "as §1"}, "sphingosine kinases (SK)": {"system": "sphingosine kinases (SK)", "assay": "Effect on sphingosine kinase (SK) activity", "conditions": "data not shown"}, "Jurkat cells [5]": {"system": "Jurkat cells", "assay": "Immunoblotting of signalling and apoptosis markers in Jurkat cells", "format": "cell-based", "conditions": "7.5 μM, time course", "protocol": "Jurkat cells were treated at 5×10^5/ml in RPMI with 0.5% FBS as detailed. Cells were harvested by centrifugation at 1500 g for 5 mins and washed with PBS prior to lysis in NP40 lysis buffer (10 mM Tris-HCl pH7.4, 137 mM NaCl, 10% glycerol, 1% NP40, protease inhibitor (Roche), 4 mM NaF, 2 mM Na-vanadate, 10 mM β-glycerophosphate, 1 mM Na-pyrophosphate, 1 mM Na-molybdate) for 30 minutes on ice with vortexing. The lysates were clarified at 13,000 rpm for 15 minutes at 4° C. and protein concentration determined using BCA assay (Pierce). 30-40 μg of lysate were run on to Criterion-XT 4-12% Bis-Tris gels (Bio-Rad), followed by transfer onto nitrocellulose. The filters were blocked for 30 minutes at room temperature in TNT buffer (10 mM Tris-HCl pH8, 150 mM NaCl, 0.05% Tween-20) containing blocking buffer (Roche), prior to incubation with antibodies over night. Antibodies used were from Cell Signalling; Phospho-p38 MAPK(#4571), Phospho-SAPK/JNK(81E11), Phospho-p44/42 MAP kinase (#9101), Phospho-AKT S473 (#9271), p44/42 MAP kinase (#9102), AKT (#9272), BID (#2002), caspase-3 (#9602), PARP (#9542), and Santa Cruz Biotechnology; pan 14-3-3 K19 (sc-629). Following antibody binding, filters were washed in TNT for 1 hr at room temperature, incubated with 1/12,500 anti-rabbit or anti-mouse HRP secondary antibody (Pierce) for 1 hr at room temperature and finally washed for 1 hr with TNT before incubation with Clarity western ECL reagent (Bio-Rad). Filters were exposed on a LAS 4000 imager. Blots were analysed using Multi-gauge/Colony software FUJI FILM)."}, "[6]": {"assay": "Toxicity of daily intraperitoneal dosing in mice", "format": "in vivo, Balb/C nude mice", "protocol": "Finally, we studied the effects of RB-012 in vivo. To assess any potential toxic effects, Balb/C nude mice were administered RB-012, delivered in saline, daily by intra-peritoneal injection at 5 mg/kg."}}, "note": "“Also recorded” adds a separate entry of the source.", "data": [{"smiles": "CCCCCCCCc1ccc(CC[N+]2(C)CCCCC2)cc1", "note": "[RB-012]", "values": [{"measurement": "cell viability / growth and survival (MTS), in words", "setting": "A549 cells [1]", "value": "inhibited"}, {"measurement": "IC50", "setting": "A549 cells [1]; Homo sapiens, A549", "value": 5.5, "unit": "µM"}, {"measurement": "tolerability at 10 mg/kg", "setting": "A549 xenograft; 10 mg/kg daily i.p.", "value": "well tolerated without adverse effects"}, {"measurement": "tumours smaller than in mice receiving saline", "setting": "A549 xenograft; after two weeks, 2 mg/kg for two days, then 5 mg/kg daily i.p.", "value": 20, "unit": "%"}, {"measurement": "growth of A549 xenograft, in words", "setting": "A549 xenograft; daily i.p., 2 then 5 then 10 mg/kg", "value": "retarded"}, {"measurement": "ED50 for apoptosis induction, in words", "setting": "Jurkat cells [2]", "value": "low micromolar range"}, {"measurement": "Annexin V presentation", "setting": "Jurkat cells [2]; 5 μM, 24 hours", "value": "Annexin V presentation"}, {"measurement": "cell viability", "setting": "Jurkat cells [2]; 5 μM, 24 hours", "value": "loss of viability"}, {"measurement": "apoptosis as determined by caspase-3 activation", "setting": "Jurkat cells [2]; 5 μM, within 5 hours", "value": "readily able to activate apoptosis"}, {"measurement": "colony formation in soft agar", "setting": "A549 cells [3]", "value": "slightly greater potency"}, {"measurement": "caspase-3 activation", "setting": "A549 cells [4]", "value": "induce caspase activation; also recorded: greater potency"}, {"measurement": "effect on SK activity", "setting": "sphingosine kinases (SK)", "value": "does not affect SK activity"}, {"measurement": "time at which BID cleavage is detected", "setting": "Jurkat cells [5]", "value": 3, "unit": "h"}, {"measurement": "time at which PARP cleavage is detectable", "setting": "Jurkat cells [5]", "value": 2, "unit": "h"}, {"measurement": "time at which clipping of 14-3-3 protein is detectable", "setting": "Jurkat cells [5]", "value": 2, "unit": "h"}, {"measurement": "time to commitment to apoptosis", "setting": "Jurkat cells [5]", "value": "2 to 3", "unit": "h"}, {"measurement": "time within which cramping after injection subsided", "setting": "[6]; 5 mg/kg daily intra-peritoneal", "value": "10 to 20", "unit": "min"}, {"measurement": "adverse effects", "setting": "[6]; 5 mg/kg daily intra-peritoneal in saline, 28 days", "value": "no adverse effects were noted with the exception of minor cramping"}, {"measurement": "body weight", "setting": "[6]; 5 mg/kg daily intra-peritoneal, 28 days", "value": "unaltered"}, {"measurement": "steady state haemopoiesis (blood and bone marrow samples)", "setting": "[6]; end of treatment period, data not shown", "value": "no changes were observed"}]}]}
